Patent US20190022043A1, “METHODS OF USING CASPASE INHIBITORS IN TREATMENT OF LIVER DISEASE” (Conatus Pharmaceuticals Inc., priority 2015, published 2019)

How the values were obtained:
Assay type in all cases: in vivo, human
[1] = tested on: patients with liver cirrhosis; assay: Phase 2 clinical trial in liver cirrhosis: common indicators of liver damage (ALT, AST); details: overall patient population
Protocol: (§1) A double-blind, placebo-controlled Phase 2 clinical trial was conducted at 26 U.S. sites and enrolled 86 patients with liver cirrhosis due to different etiologies, mild to moderate liver impairment as determine by Child Pugh classification and baseline MELD scores of 11 to 18. Patients were randomized 1:1 to receive either 25 mg of emricasan (IDN-6556) or placebo orally twice daily for three months. Endpoints included a change from baseline in cCK18 and changes from baseline in MELD and Child-Pugh scores, which are composite scores of laboratory parameters associated with liver synthetic and excretory function, such as serum albumin levels, international normalized ratio (INR) and total bilirubin levels.
(§2) Among the 86 subjects enrolled and receiving study drug, liver cirrhosis etiologies included alcohol (39%), hepatitis C virus (29%), non-alcoholic steatohepatitis, or NASH (23%), and other causes (9%). Baseline MELD scores were […] in 78% of enrolled subjects and >15 in 22% of enrolled subjects. Baseline Child-Pugh status was A in 43% of subjects and B in 56% of subjects.

[2] = tested on: caspase-driven cell death (cCK18, caspase 3/7, flCK18); assay: Phase 2 clinical trial in liver cirrhosis: mechanism-based biomarkers (cCK18, caspase 3/7, flCK18); details: overall patient population
Protocol: as §1, §2

[3] = tested on: patients with liver cirrhosis; assay: Phase 2 clinical trial in liver cirrhosis: liver function (MELD score, Child-Pugh score, total bilirubin, INR, albumin); details: for INR Change at Month 3 / Total bilirubin Change at Month 3 / Albumin Change at Month 3 / Child-Pugh score Change at Month 3 / MELD score Change at Month 3: 25 mg orally twice daily, three months, LOCF
Protocol: as §1, §2
The overall trends were driven by statistically significant improvements in MELD and Child-Pugh scores in a high medical need subgroup of patients with baseline MELD scores ≥15, the established prerequisite for listing a patient for liver transplant.

[4] = baseline MELD ≥15 subgroup, after three months of treatment, placebo two of ten

C[C@H](NC(=O)C(=O)Nc1ccccc1C(C)(C)C)C(=O)N[C@@H](CC(=O)O)C(=O)COc1c(F)c(F)cc(F)c1F [Emricasan, (3S)-3-[N—(N′-(2-tert-Butylphenyl) Oxamyl)Alaninyl]Amino-5-(2′,3′,5′,6′-Tetrafluorophenoxy)-4-Oxopentanoic Acid]
common indicators of liver damage (ALT, AST) [1]: positive changes | ALT Change at Month 3 (median change) ([1]; N = 44, 25 mg orally twice daily, three months, LOCF, baseline 27.5, p 0.03 vs placebo): −3.0 U/L | AST Change at Month 3 (median change) ([1]; N = 44, 25 mg orally twice daily, three months, LOCF, baseline 50.0, p 0.08 vs placebo): −5.0 U/L | other mechanism-based biomarkers (caspase 3/7, flCK18) [2]: positive changes | cCK18 Change at Month 3 ([2]; N = 44, 25 mg orally twice daily for three months, last observation carried forward, baseline 289 U/L (geometric mean), p 0.04 vs placebo): −4.6% | flCK18 Change at Month 3 ([2]; N = 44, 25 mg orally twice daily, three months, LOCF, baseline 714 U/L, p 0.005 vs placebo): −18% | Caspase 3/7 Change at Month 3 ([2]; N = 44, 25 mg orally twice daily, three months, LOCF, baseline 2656 RLU, p <0.0001 vs placebo): −45.5% | caspase-cleaved cytokeratin 18 (cCK18) vs. placebo ([2]; adjusted for baseline MELD score and disease etiology, p=0.04): statistically significant reduction | INR Change at Month 3 ([3]; baseline MELD score ≥15 patient population, N = 9, baseline 1.54, p 0.0004 vs placebo): −0.14 | Total bilirubin Change at Month 3 ([3]; baseline MELD score ≥15 patient population, N = 9, baseline 3.17, p 0.03 vs placebo): -0.55 mg/dL | Albumin Change at Month 3 ([3]; baseline MELD score ≥15 patient population, N = 9, baseline 3.41, p 0.78 vs placebo): +0.07 g/dL | Child-Pugh score Change at Month 3 ([3]; baseline MELD score ≥15 patient population, N = 9, baseline 7.8, p 0.003 vs placebo): −0.6 | MELD score Change at Month 3 ([3]; baseline MELD score ≥15 patient population, N = 9, baseline 16.0, p 0.003 vs placebo): −1.6 | patients with an increase in Child-Pugh score ([3]; baseline MELD ≥15 subgroup, after three months of treatment, placebo four out of ten (at least one point increase)): none of nine | patients who achieved a reduction in MELD score to below 14 ([3]; baseline MELD ≥15 subgroup, after three months of treatment, placebo one out of ten): Four of nine | patients who achieved at least a 2 point reduction in MELD score [3, 4]: Six of nine | patients with at least a one point reduction in Child Pugh score [3, 4]: Four of nine | INR Change at Month 3 ([3]; overall patient population, N = 44, baseline 1.33, p 0.12 vs placebo): −0.02 | Total bilirubin Change at Month 3 ([3]; overall patient population, N = 44, baseline 2.25, p 0.19 vs placebo): -0.05 mg/dL | Albumin Change at Month 3 ([3]; overall patient population, N = 44, baseline 3.46, p 0.38 vs placebo): +0.02 g/dL | Child-Pugh score Change at Month 3 ([3]; overall patient population, N = 44, baseline 6.9, p 0.10 vs placebo): −0.2 | MELD score Change at Month 3 ([3]; overall patient population, N = 44, baseline 12.8, p 0.50 vs placebo): −0.1
